Experimental data reported in US9695133B2, “Quinazolinone-based oncogenic-RAS-selective lethal compounds and their use” (THE TRUSTEES OF COLUMBIA UNIVERSITY IN THE CITY OF NEW YORK, priority 2012, dated 2017).
Like-named read-outs stand apart in the source and are kept apart here.

Key:
[1] = Postdose observations in the pharmacokinetic study; type: in vivo, male C57BL6/j mice; settings: single 20 mg/kg IV or PO
in vivo = settings: male, C57BL6/j, mouse, 20 mg/kg
[2] = male, C57BL6/j, mouse, in vivo, po, 20 mg/kg
[3] = iv, Brain Concentration, individual mice
[4] = iv, Brain-Plasma Concentration Ratio, Mean
[5] = iv, Brain-Plasma Concentration Ratio, individual mice
[6] = po, Brain Concentration, individual mice
[7] = po, Brain-Plasma Concentration Ratio, Mean
[8] = po, Brain-Plasma Concentration Ratio, individual mice

postdose observations [1]: No abnormal observations were noted
MRT inf (in vivo; iv): 9.91 h
Tmax (in vivo; iv): 0.5 h
half-life (in vivo; iv): 385 min
concentration at 0.5 h (in vivo; iv, Brain Concentration, Mean): 96.1 ng/g
concentration at 1 h (in vivo; iv, Brain Concentration, Mean): 85.5 ng/g
concentration at 2 h (in vivo; iv, Brain Concentration, Mean): 73.7 ng/g
concentration at 4 h (in vivo; iv, Brain Concentration, Mean): 48 ng/g
concentration at 8 h (in vivo; iv, Brain Concentration, Mean): 30 ng/g
concentration at 12 h (in vivo; iv, Brain Concentration, Mean): 29.8 ng/g
concentration at 0.5 h (in vivo; [3]): 116 ng/g
concentration at 1 h (in vivo; [3]): 76.6 ng/g
concentration at 2 h (in vivo; [3]): 79.1 ng/g
concentration at 4 h (in vivo; [3]): 34.1 ng/g
Kp at 0.5 hr (in vivo; [4]): 0.03
Kp at 1 h (in vivo; [4]): 0.08
Kp at 2 h (in vivo; [4]): 0.07
Kp at 4 h (in vivo; [4]): 0.13
Kp at 8 h (in vivo; [4]): 0.23
Kp at 12 h (in vivo; [4]): 0.44
Kp at 0.5 hr (in vivo; [5]): 0.03
Kp at 2 h (in vivo; [5]): 0.09
Kp at 4 h (in vivo; [5]): 0.17
Tmax (in vivo; po): 4 h
concentration at 1 h (in vivo; po, Brain Concentration, Mean): 14.9 ng/g
concentration at 2 h (in vivo; po, Brain Concentration, Mean): 12.3 ng/g
concentration at 4 h (in vivo; po, Brain Concentration, Mean): 15.6 ng/g
concentration at 1 h (in vivo; [6]): 10.9 ng/g
concentration at 2 h (in vivo; [6]): 15.1 ng/g
concentration at 4 h (in vivo; [6]): 14.2 ng/g
Kp at 1 h (in vivo; [7]): 0.01
Kp at 2 h (in vivo; [7]): 0.01
Kp at 4 hr (in vivo; [7]): 0.02
Kp at 1 h (in vivo; [8]): 0.01
Kp at 2 h (in vivo; [8]): 0.01
Kp at 4 hr (in vivo; [8]): 0.02
Brain Concentration, individual mice ([2]; 1 h): 18.92 ng/g
Brain-Plasma Concentration Ratio, individual mice ([2]; 1 h): 0.01 mL/g
Brain Concentration, individual mice ([2]; 2 h): 9.49 ng/g
Brain-Plasma Concentration Ratio, individual mice ([2]; 2 h): 0.01 mL/g
SMILES: CC(C)Oc1ccc(CN2CCNCC2)cc1-n1c(CN2CCN(C(=O)COc3ccc(Cl)cc3)CC2)nc2ccccc2c1=O [PE, 2-((4-(2-(4-chlorophenoxy)ethanoyl)piperazin-1-yl)methyl)-3-(2-isopropoxy-5-(piperazin-1-ylmethyl)phenyl)quinazolin-4(3H)-one]
